In US12473295B2, “Substituted straight chain spiro derivatives” (Janssen Pharmaceutica NV, priority 2019, dated 2025):
Counter-ions that a name gives are not always drawn. Like-named read-outs stand apart in the source and are kept apart here.

Key:
[1] = molecular target: menin/MLL (terbium chelate-labeled menin, FITC-MBM1 peptide) (Homo sapiens (Human), UniProt O00255); experiment: Menin/MLL homogenous time-resolved fluorescence (HTRF) assay; type: binding;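 note: IC50 from percent inhibition of HTRF signal, normalized between wells without competitor and wells with a saturating competitor that displaces FITC-MBM1 from His-tagged menin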
[2] = system: MOLM14 cells; experiment: Proliferation assay (spheroid growth, 8 days), MOLM14; type: cell-based, human; conditions: MOLM14, 8 days, read-out: spheroid assay_OneTime MOLM14 IC50;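 note: spheroid size read as confluence by live-cell imaging, compounds added at a range of concentrations with 0.3% DMSO, DMSO-treated wells = 0%, highest reference dose = low control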
[3] = system: OCI-AML3 cells; experiment: Proliferation assay (spheroid growth, 8 days), OCI-AML3; type: cell-based, human
Method in brief: (§1)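 IC50 values derive from day-8 spheroid confluence, normalized between DMSO-treated wells and the highest dose of a reference compound, fitted with a variable slope. Cells grew 8 days at 37° C under a compound concentration series in 0.3% DMSO.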

[4] = system: KO-52 cells; experiment: Proliferation assay (spheroid growth, 8 days), KO-52 control cell line; type: cell-based, human; conditions: read-out: spheroid assay_OneTime KO-52 IC50
Method in brief: as §1

[5] = system: MEIS1 mRNA; experiment: MEIS1 mRNA expression assay (Quantigene Singleplex) in MOLM14 cells; type: cell-based, human;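 note: MEIS1 transcript levels read by probe hybridization and normalized to RPL28 mRNA, with IC50 fitted to fold changes across a rising compound concentration series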
[6] = molecular target: hERG potassium channel (Homo sapiens (Human), UniProt Q12809); experiment: Effect on membrane potassium current IKr in hERG transfected CHO cells, Protocol 1 (QPatch); type: cell-based
Procedure: 8) Effect on the Membrane Potassium Current IKr in hERG Transfected Cell Lines
• CHO Chinese hamster ovary cell line • DMSO Dimethylsulfoxide • hERG human ether-á-go-go-related gene • IKr rapidly activating delayed-rectifier K^+ current Methods
Experiments were performed using CHO cells stably expressing the hERG potassium channel. Cells were grown at 37° C. and 5% CO2 in culture flasks in Ham's F12 Medium supplemented with 10% heat-inactivated fetal calf serum, hygromycin B (100 μg/ml) and geneticin (100 μg/ml). For use in the automated patch-clamp system QPatch (Sophion) cells were harvested to obtain cell suspension of single cells.
Solutions: The bath solution contained (in mM) 145 NaCl, 4 KCl, 10 glucose, 10 HEPES ((4-(2-hydroxyethyl)-1-piperazineethanesulfonic acid), 2 CaCl2 and 1 MgCl2 (pH 7.4 with NaOH). The pipette solution contained (in mM) 120 KCl, 10 EGTA (Ethylene glycol-bis(2-aminoethylether)-N,N,N′,N′-tetraacetic acid), 10 HEPES, 5.374 CaCl2 and 1.75 MgCl2 (pH 7.2 with KOH).
Patch-clamp experiments were performed in the voltage-clamp mode and whole-cell currents were recorded with an automated patch-clamp assay utilizing the QPatch system (Sophion). Current signals were amplified and digitized, stored and analyzed by using the QPatch assay software.
The holding potential was −80 mV. The hERG current (K^+-selective outward current) was determined as the maximal tail current at −40 mV after a 2 second depolarization to +60 mV. Pulse cycling rate was 15 s. A short pulse (90 ms) to −40 mV served as a baseline step to calculate the tail current amplitude. After establishing whole-cell configuration and a stability period, the solvent control (0.3% DMSO) was applied for 5 minutes followed by the test substance by four increasing concentrations of 3×10^−7 M, 3×10^−6 M, 10^−5 M and 3×10^−5 M. Each concentration of the test substance was applied twice. The effect of each concentration was determined after 5 min as an average current of 3 sequential voltage pulses. To determine the extent of block the residual current was compared with vehicle pre-treatment.
Concentration/response relations were calculated by non-linear least-squares fits to the individual data points. The half-maximal inhibiting concentration (IC50) was calculated by the fitting routine.

[7] = HTRF-30 min incubation IC50, 30 min incubation
[8] = Homo sapiens, OCI-AML-3, […], OCI-AML3, 8 days
[9] = Homo sapiens, MOLM-14, 48 h, 48 hours incubation
[10] = Homo sapiens, OCI-AML-3, OCI-AML3, 8 days
[11] = Homo sapiens, MOLM-14, 48 hours incubation

menin/MLL (terbium chelate-labeled menin, FITC-MBM1 peptide), sequence (O00255 other isoform, or with tags, fused parts or gaps): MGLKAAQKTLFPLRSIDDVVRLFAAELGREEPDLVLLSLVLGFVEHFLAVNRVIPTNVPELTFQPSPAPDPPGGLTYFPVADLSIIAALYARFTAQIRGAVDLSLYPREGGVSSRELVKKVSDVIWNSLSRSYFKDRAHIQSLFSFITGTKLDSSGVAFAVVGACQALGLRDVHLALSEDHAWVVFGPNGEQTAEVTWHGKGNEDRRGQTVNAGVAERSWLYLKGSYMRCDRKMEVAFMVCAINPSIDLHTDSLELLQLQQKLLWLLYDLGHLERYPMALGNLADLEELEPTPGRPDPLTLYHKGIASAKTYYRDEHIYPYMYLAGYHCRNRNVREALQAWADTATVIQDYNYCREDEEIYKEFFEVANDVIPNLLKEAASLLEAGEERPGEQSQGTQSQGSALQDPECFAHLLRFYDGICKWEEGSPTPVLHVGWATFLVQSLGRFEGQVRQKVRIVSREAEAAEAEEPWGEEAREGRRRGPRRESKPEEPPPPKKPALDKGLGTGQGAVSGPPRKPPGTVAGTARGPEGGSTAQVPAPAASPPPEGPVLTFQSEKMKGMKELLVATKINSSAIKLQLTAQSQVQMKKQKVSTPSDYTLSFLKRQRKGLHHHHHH
hERG potassium channel, sequence (Q12809 whole entry): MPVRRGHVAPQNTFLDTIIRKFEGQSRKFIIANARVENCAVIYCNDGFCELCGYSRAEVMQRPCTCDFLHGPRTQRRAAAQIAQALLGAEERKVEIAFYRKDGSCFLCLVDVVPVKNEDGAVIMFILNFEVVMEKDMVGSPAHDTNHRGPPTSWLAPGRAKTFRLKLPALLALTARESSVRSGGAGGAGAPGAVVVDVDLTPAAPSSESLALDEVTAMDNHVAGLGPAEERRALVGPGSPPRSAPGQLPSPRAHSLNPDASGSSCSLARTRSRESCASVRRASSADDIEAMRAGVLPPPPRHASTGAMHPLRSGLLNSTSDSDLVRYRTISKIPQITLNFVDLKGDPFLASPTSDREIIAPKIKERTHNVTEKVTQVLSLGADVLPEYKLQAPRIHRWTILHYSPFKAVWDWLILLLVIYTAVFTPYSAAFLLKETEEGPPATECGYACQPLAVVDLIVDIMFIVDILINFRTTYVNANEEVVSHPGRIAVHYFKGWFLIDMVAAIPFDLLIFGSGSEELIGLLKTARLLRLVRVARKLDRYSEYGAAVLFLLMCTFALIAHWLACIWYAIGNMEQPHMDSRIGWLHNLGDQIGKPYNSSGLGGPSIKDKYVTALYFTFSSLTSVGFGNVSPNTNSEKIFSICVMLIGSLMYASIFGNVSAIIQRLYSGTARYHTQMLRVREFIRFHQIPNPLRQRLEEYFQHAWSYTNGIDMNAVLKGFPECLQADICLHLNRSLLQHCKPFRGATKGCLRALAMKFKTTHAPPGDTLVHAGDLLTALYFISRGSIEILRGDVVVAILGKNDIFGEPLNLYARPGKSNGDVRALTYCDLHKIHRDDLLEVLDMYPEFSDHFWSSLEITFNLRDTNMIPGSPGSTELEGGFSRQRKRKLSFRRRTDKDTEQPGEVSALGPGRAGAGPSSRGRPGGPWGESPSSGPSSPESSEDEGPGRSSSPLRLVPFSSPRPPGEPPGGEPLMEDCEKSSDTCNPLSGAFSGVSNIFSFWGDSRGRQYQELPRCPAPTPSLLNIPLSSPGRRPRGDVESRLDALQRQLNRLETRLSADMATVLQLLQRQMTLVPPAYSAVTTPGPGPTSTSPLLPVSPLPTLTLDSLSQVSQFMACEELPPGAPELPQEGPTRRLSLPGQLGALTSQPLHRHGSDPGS

Structure (SMILES)	IC50 [1, 7] [nM]	IC50 ([2]; Homo sapiens, MOLM-14, […]) [nM]	IC50 [3, 8] [nM]	IC50 ([4]; Homo sapiens, […]) [nM]	IC50 [5, 9] [nM]	IC50 [6] [nM]	IC50 ([1]; read-out: HTRF-30 min incubation IC50, 30 min incubation) [nM]	IC50 [2] [nM]	IC50 ([3]; OCI-AML3, 8 days) [nM]	IC50 [4] [nM]	IC50 ([5]; 48 hours incubation) [nM]	IC50 ([2]; Homo sapiens, MOLM-14) [nM]	IC50 [3, 10] [nM]	IC50 ([4]; Homo sapiens) [nM]	IC50 [5, 11] [nM]
CCN(C(=O)c1cc(F)ccc1Oc1nncnc1N1CCC2(C1)CN([C@H](CCC(C)(C)NC)C(C)C)C2)C(C)C (single isomer, unassigned) [Compound 35, (*R)-2-((5-(2-(2,6-dimethyl-6-(methylamino)heptan-3-yl)-2,6-diazaspiro[3.4]octan-6-yl)-1,2,4-triazin-6-yl)oxy)-N-ethyl-5-fluoro-N-isopropylbenzamide hydrochloride]	0.15	200	490	> 15000	120	> 30200	–	–	–	–	–	–	–	–	–
CC(C)[C@@H](CCCN(C)C)N1CC2(CCN(c3ccnnc3Oc3ccc(F)cc3C(=O)N(C(C)C)C(C)C)C2)C1 (single isomer, unassigned) [Compound 75, (*R)-2-((4-(2-(6-(dimethylamino)-2-methylhexan-3-yl)-2,6-diazaspiro[3.4]octan-6-yl)pyridazin-3-yl)oxy)-5-fluoro-N,N-diisopropylbenzamide]	–	–	–	–	–	> 30200	0.21	53	410	> 15000	140	–	–	–	–
COCCN(C)CCC[C@H](C(C)C)N1CC2(CCN(c3ncnnc3Oc3ccc(F)cc3C(=O)N(C(C)C)C(C)C)C2)C1 (single isomer, unassigned) [Compound 94, (*R)-5-fluoro-N,N-isopropyl-2-((5-(2-(6-((2-methoxyethyl)(methyl)amino)-methylhexan-3-yl)-2,6-diazaspiro[3.4]octan-6-yl)-1,2,4-triazin-6-yl)oxy)benzamide oxalate]	0.12	10	96	4750	8.2	30900	–	–	–	–	–	–	–	–	–
CCN(C(=O)c1cc(F)ccc1Oc1nncnc1N1CCC2(C1)CN([C@H](CCCN(C)C)C(C)C)C2)C(C)C [Compound 4, (R)-2-((5-(2-(6-(dimethylamino)-2-methylhexan-3-yl)-2,6-diazaspiro[3.4]octan-6-yl)-1,2,4-triazin-6-yl)oxy)-N-ethyl-5-fluoro-N-isopropylbenzamide]	0.095	30	390	> 15000	20	> 30200	–	–	–	–	–	–	–	–	–
CCN(C(=O)c1cc(F)ccc1Oc1nncnc1N1CCC2(C1)CN([C@H](CCCNC(=O)OC)C(C)C)C2)C(C)C [Compound 10, methyl (R)-(4-(6-(6-(2-(ethyl(isopropyl)carbamoyl)-4-fluorophenoxy)-1,2,4-triazin-5-yl)-2,6-diazaspiro[3.4]octan-2-yl)-5-methylhexyl)carbamate]	0.18	–	–	–	–	> 30200	–	–	–	–	–	340	1680	> 15000	410
CCN(C(=O)c1cc(F)ccc1Oc1nncnc1N1CCC2(C1)CN([C@H](CCCNCCC#N)C(C)C)C2)C(C)C [Compound 12, (R)-2-((5(2-(6-((2-cyanoethyl)amino)-2-methylhexan-3-yl)-2,6-diazaspiro[3.4]octan-6-yl)-1,2,4-triazin-6-yl)oxy)-N-ethyl-5-fluoro-N-isopropylbenzamide]	0.12	–	–	–	–	> 30200	–	–	–	–	–	36	630	8240	39
CCN(C(=O)c1cc(F)ccc1Oc1nncnc1N1CCC2(C1)CN([C@H](CCCNCCC(F)(F)F)C(C)C)C2)C(C)C [Compound 14, (R)-N-ethyl-5-fluoro-N-isopropyl-2-((5-(2-(2-methyl-6-((3,3,3-trifluoropropyl)amino)hexan-3-yl)-2,6-diazaspiro[3.4]octan-6-yl)-1,2,4-triazin-6-yl)oxy)benzamide]	0.05	10	69	3100	8.5	20000	–	–	–	–	–	–	–	–	–
CCN(C(=O)c1cc(F)ccc1Oc1nncnc1N1CCC2(C1)CN([C@H](CCCNCC(F)(F)F)C(C)C)C2)C(C)C [Compound 17, (R)-N-ethyl-5-fluoro-N-isopropyl-2-((5-(2-(2-methyl-6-((2,2,2-trifluoroethyl)amino)hexan-3-yl)-2,6-diazaspiro[3.4]octan-6-yl)-1,2,4-triazin-6-yl)oxy)benzamide]	0.61	300	1440	6790	240	4100	–	–	–	–	–	–	–	–	–
CCN(C(=O)c1cc(F)ccc1Oc1nncnc1N1CCC2(C1)CN(C(CCCNCCS(C)(=O)=O)C(C)C)C2)C(C)C (stereo not drawn) [Compound 18, N-ethyl-5-fluoro-N-isopropyl-2-((5-(2-(2-methyl-6-((2-(methylsulfonyl)ethyl)amino)hexan-3-yl)-2,6-diazaspiro[3.4]octan-6-yl)-1,2,4-triazin-6-yl)oxy)benzamide]	0.3	120	660	> 15000	150	> 30200	–	–	–	–	–	–	–	–	–
CCN(C(=O)c1cc(F)ccc1Oc1nncnc1N1CCC2(C1)CN([C@H](CCCN(C)CC(=O)N(C)C)C(C)C)C2)C(C)C [Compound 23]	0.22	170	810	13800	150	> 30200	–	–	–	–	–	–	–	–	–
CCN(C(=O)c1cc(F)ccc1Oc1nncnc1N1CCC2(C1)CN([C@H](CCCNC(=O)OC(C)OC(=O)C(C)C)C(C)C)C2)C(C)C (stereo partly drawn) [Compound 39, 1-((((R)-4-(6-(6-(2-(ethyl(isopropyl)carbamoyl)-4-fluorophenoxy)-1,2,4-triazin-5-yl)-2,6-diazaspiro[3.4]octan-2-yl)-5-methylhexyl)carbamoyl)oxy)ethyl isobutyrate]	0.26	27	140	> 15000	44	7600	–	–	–	–	–	–	–	–	–
CCN(C(=O)c1cc(F)ccc1Oc1nncnc1N1CCC2(C1)CN([C@H](CCCN(C)C(=O)OC(C)OC(=O)C(C)C)C(C)C)C2)C(C)C (stereo partly drawn) [Compound 40, 1-((((R)-4-(6-(6-(2-(ethyl(isopropyl)carbamoyl)-4-fluorophenoxy)-1,2,4-triazin-5-yl)-2,6-diazaspiro[3.4]octan-2-yl)-5-methylhexyl)(methyl)carbamoyl)oxy)ethyl isobutyrate]	0.4	19	74	9540	19	5000	–	–	–	–	–	–	–	–	–
CCN(C(=O)c1cc(F)ccc1Oc1nncnc1N1CCC2(C1)CN([C@H](CCCN(C)CC(C)OC)C(C)C)C2)C(C)C (stereo partly drawn) [Compound 252, N-ethyl-5-fluoro-N-isopropyl-2-((5-(2-((3R)-6-((2-methoxypropyl)(methyl)amino)-2-methylhexan-3-yl)-2,6-diazaspiro[3.4]octan-6-yl)-1,2,4-triazin-6-yl)oxy)benzamide oxalate]	0.065	32	640	7260	53	> 30200	–	–	–	–	–	–	–	–	–
CCOCCN(C)CCC[C@H](C(C)C)N1CC2(CCN(c3ncnnc3Oc3ccc(F)cc3C(=O)N(CC)C(C)C)C2)C1 [Compound 258, (R)-2-((5-(2-(6-((2-ethoxyethyl)(methyl)amino)-2-methylhexan-3-yl)-2,6-diazaspiro[3.4]octan-6-yl)-1,2,4-triazin-6-yl)oxy)-N-ethyl-5-fluoro-N-isopropylbenzamide oxalate]	0.33	27	740	5440	26	> 30200	–	–	–	–	–	–	–	–	–
